US10987359B2, “Oxadiazepinone derivatives and methods of treating hepatitis B infections” (priority 2016, dated 2021)

What follows are compounds tested on HBV (assay: HBV replication inhibition assay (BDNA assay) in HepG2.2.15 cells). Settings: HBV replication assay (BDNA assay), HepG2.2.15 cells; read-out: DNA EC50.
Assay type: cell-based
Procedure, shortened: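 HepG2.2.15 cells with stably integrated HBV were treated with serially diluted compounds at 0.5% DMSO for 6 days, with medium and compound refreshed at day 3. Encapsidated HBV DNA from DNase-treated supernatant was quantified by branched DNA assay. EC50 came from % inhibition versus DMSO, fitted non-linearly.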

| Compound | EC50 [nM] |
| --- | --- |
| C[C@@H]1Cc2nn3c(c2CN1C(=O)Nc1ccnc(Br)c1F)C(=O)N(C)OC(CN(C)C)C3 (stereo in doubt) [Compound 095_D2, (4R*,9R)—N-(2-bromo-3-fluoropyridin-4-yl)-4-((dimethylamino)methyl)-2,9-dimethyl-1-oxo-1,4,5,8,9,11-hexahydropyrido[4′,3′:3,4]pyrazolo[5,1-d][1,2,5]oxadiazepine-10(2H)-carboxamide] | 100 to 500 |
| C[C@@H]1Cc2nn3c(c2CN1C(=O)Nc1ccc(F)c(C#N)c1)C(=O)N(C)OC(CN(C)C)C3 (stereo in doubt) [Compound 096_D1, (4S*,9R)—N-(3-cyano-4-fluorophenyl)-4-((dimethylamino)methyl)-2,9-dimethyl-1-oxo-1,4,5,8,9,11-hexahydropyrido[4′,3′:3,4]pyrazolo[5,1-d][1,2,5]oxadiazepine-10(2H)-carboxamide] | 100 to 500 |
| C[C@@H]1Cc2nn3c(c2CN1C(=O)Nc1ccc(F)c(C#N)c1)C(=O)N(C)OC(CN(C)C)C3 (stereo in doubt) [Compound 096_D2, (4R*,9R)—N-(3-cyano-4-fluorophenyl)-4-((dimethylamino)methyl)-2,9-dimethyl-1-oxo-1,4,5,8,9,11-hexahydropyrido[4′,3′:3,4]pyrazolo[5,1-d][1,2,5]oxadiazepine-10(2H)-carboxamide] | 1 to 100 |
| Cc1cc(NC(=O)N2Cc3c(nn4c3C(=O)N(C)OC(CN(C)C)C4)C[C@H]2C)ccc1F (stereo in doubt) [Compound 097_D2, (4R*,9R)-4-((dimethylamino)methyl)-N-(4-fluoro-3-methylphenyl)-2,9-dimethyl-1-oxo-1,4,5,8,9,11-hexahydropyrido[4′,3′:3,4]pyrazolo[5,1-d][1,2,5]oxadiazepine-10(2H)-carboxamide] | 1 to 100 |
| C[C@@H]1Cc2nn3c(c2CN1C(=O)Nc1ccc(F)c(C(F)(F)F)c1)C(=O)N(C)OC(CN(C)C)C3 (stereo in doubt) [Compound 098_D2, (4R*,9R)-4-((dimethylamino)methyl)-N-(4-fluoro-3-(trifluoromethyl)phenyl)-2,9-dimethyl-1-oxo-1,4,5,8,9,11-hexahydropyrido[4′,3′:3,4]pyrazolo[5,1-d][1,2,5]oxadiazepine-10(2H)-carboxamide] | 1 to 100 |
| C[C@@H]1Cc2nn3c(c2CN1C(=O)Nc1cc(Cl)c(F)cc1F)C(=O)N(C)OC(CN(C)C)C3 (stereo in doubt) [Compound 099_D2, (4R*,9R)—N-(5-chloro-2,4-difluorophenyl)-4-((dimethylamino)methyl)-2,9-dimethyl-1-oxo-1,4,5,8,9,11-hexahydropyrido[4′,3′:3,4]pyrazolo[5,1-d][1,2,5]oxadiazepine-10(2H)-carboxamide] | 100 to 500 |
| C[C@@H]1Cc2nn3c(c2CN1C(=O)Nc1cc(Br)c(F)cc1F)C(=O)N(C)OC(CN(C)C)C3 (stereo in doubt) [Compound 100_D1, (4S*,9R)—N-(5-bromo-2,4-difluorophenyl)-4-((dimethylamino)methyl)-2,9-dimethyl-1-oxo-1,4,5,8,9,11-hexahydropyrido[4′,3′:3,4]pyrazolo[5,1-d][1,2,5]oxadiazepine-10(2H)-carboxamide] | 100 to 500 |
| C[C@@H]1Cc2nn3c(c2CN1C(=O)Nc1cc(Br)c(F)cc1F)C(=O)N(C)OC(CN(C)C)C3 (stereo in doubt) [Compound 100_D2, (4R*,9R)—N-(5-bromo-2,4-difluorophenyl)-4-((dimethylamino)methyl)-2,9-dimethyl-1-oxo-1,4,5,8,9,11-hexahydropyrido[4′,3′:3,4]pyrazolo[5,1-d][1,2,5]oxadiazepine-10(2H)-carboxamide] | 1 to 100 |
| CNC(=O)C1Cn2nc3c(c2C(=O)N(C)O1)CN(C(=O)Nc1cc(Cl)c(F)cc1F)[C@H](C)C3 (stereo in doubt) [Compound 111_D1, (4S*,9R)—N10-(5-chloro-2,4-difluorophenyl)-N4,2,9-trimethyl-1-oxo-1,4,5,8,9,11-hexahydropyrido[4′,3′:3,4]pyrazolo[5,1-d][1,2,5]oxadiazepine-4,10(2H)-dicarboxamide] | > 1000 |

Same assay, conditions: Hepatitis B virus, HepG2.2.15, HBV replication assay (BDNA assay), HepG2.2.15 cells; read-out: DNA EC50

| Compound | EC50 [nM] |
| --- | --- |
| Cc1cc(NC(=O)N2Cc3c(nn4c3C(=O)N(C)OC(CN(C)C)C4)C[C@H]2C)ccc1F (stereo in doubt) [Compound 097_D1, (4 S*,9R)-4-((dimethylamino)methyl)-N-(4-fluoro-3-methylphenyl)-2,9-dimethyl-1-oxo-1,4,5,8,9,11-hexahydropyrido[4′,3′:3,4]pyrazolo[5,1-d][1,2,5]oxadiazepine-10(2H)-carboxamide] | 1 to 100 |
| C[C@@H]1Cc2nn3c(c2CN1C(=O)Nc1ccc(F)c(C(F)(F)F)c1)C(=O)N(C)OC(CN(C)C)C3 (stereo in doubt) [Compound 098_D1, (4S*,9R)-4-((dimethylamino)methyl)-N-(4-fluoro-3-(trifluoromethyl)phenyl)-2,9-dimethyl-1-oxo-1,4,5,8,9,11-hexahydropyrido[4′,3′:3,4]pyrazolo[5,1-d][1,2,5]oxadiazepine-10(2H)-carboxamide] | 1 to 100 |
| C[C@@H]1Cc2nn3c(c2CN1C(=O)Nc1cc(Cl)c(F)cc1F)C(=O)N(C)OC(CN(C)C)C3 (stereo in doubt) [Compound 099_D1, (4S*,9R)—N-(5-chloro-2,4-difluorophenyl)-4-((dimethylamino)methyl)-2,9-dimethyl-1-oxo-1,4,5,8,9,11-hexahydropyrido[4′,3′:3,4]pyrazolo[5,1-d][1,2,5]oxadiazepine-10(2H)-carboxamide] | 100 to 500 |
| CC[C@H]1Cc2nn3c(c2CN1C(=O)Nc1ccc(F)c(Cl)c1)C(=O)N(C)O[C@H](CO)C3 (stereo in doubt) [Compound 109_D1, (4S*,9S*)—N-(3-chloro-4-fluorophenyl)-9-ethyl-4-(hydroxymethyl)-2-methyl-1-oxo-1,4,5,8,9,11-hexahydropyrido[4′,3′:3,4]pyrazolo[5,1-d][1,2,5]oxadiazepine-10(2H)-carboxamide] | 100 to 500 |
| CC[C@@H]1Cc2nn3c(c2CN1C(=O)Nc1ccc(F)c(Cl)c1)C(=O)N(C)O[C@H](CO)C3 (stereo in doubt) [Compound 109_D2, (4S*,9R*)—N-(3-chloro-4-fluorophenyl)-9-ethyl-4-(hydroxymethyl)-2-methyl-1-oxo-1,4,5,8,9,11-hexahydropyrido[4′,3′:3,4]pyrazolo[5,1-d][1,2,5]oxadiazepine-10(2H)-carboxamide] | 100 to 500 |
| CC[C@@H]1Cc2nn3c(c2CN1C(=O)Nc1ccc(F)c(Cl)c1)C(=O)N(C)O[C@@H](CO)C3 (stereo in doubt) [Compound 109_D3, (4R*,9R*)—N-(3-chloro-4-fluorophenyl)-9-ethyl-4-(hydroxymethyl)-2-methyl-1-oxo-1,4,5,8,9,11-hexahydropyrido[4′,3′:3,4]pyrazolo[5,1-d][1,2,5]oxadiazepine-10(2H)-carboxamide] | 500 to 1000 |
| CC[C@H]1Cc2nn3c(c2CN1C(=O)Nc1ccc(F)c(Cl)c1)C(=O)N(C)O[C@@H](CO)C3 (stereo in doubt) [Compound 109_D4, (4R*,9S*)—N-(3-chloro-4-fluorophenyl)-9-ethyl-4-(hydroxymethyl)-2-methyl-1-oxo-1,4,5,8,9,11-hexahydropyrido[4′,3′:3,4]pyrazolo[5,1-d][1,2,5]oxadiazepine-10(2H)-carboxamide] | 100 to 500 |
